Assay results published in publication PMC7926793, “Synthesis and Biological Evaluation of 1-(Diarylmethyl)-1H-1,2,4-triazoles and 1-(Diarylmethyl)-1H-imidazoles as a Novel Class of Anti-Mitotic Agent for Activity in Breast Cancer” (Pharmaceuticals, 2021).

Columns and labels:
[1] = system: HL-60 leukaemia cells; assay: cell viability assay; type: cell-based; conditions: Homo sapiens, read-out: Antiproliferative Activity HL-60 Cells IC50
Description: The human breast carcinoma cell line MCF-7 was purchased from the European Collection of Animal Cell Cultures (ECACC) and cultured in Eagles minimum essential medium with 10% foetal bovine serum, 2 mM L-glutamine, and 100 μg/mL penicillin/streptomycin. The medium was supplemented with 1% non-essential amino acids. The human breast carcinoma cell line MDA-MB-231 was purchased from the ECACC. MDA-MB-231 cells were maintained in Dulbecco’s modified Eagle’s medium (DMEM) supplemented with 10% (v/v) foetal bovine serum, 2 mM L-glutamine, and 100 μg/mL penicillin/streptomycin (complete medium). HL-60 cells were derived from a patient with acute myeloid leukaemia and were obtained from the ECACC (Salisbury, UK). Cells were cultured in RPMI-1640 Glutamax medium supplemented with 10% FCS media and 100 μg/mL penicillin/streptomycin. MCF-10A cells were obtained as a kind gift from Dr Susan McDonnell, School of Chemical and Bioprocess Engineering, University College Dublin and were cultured in Dulbecco’s Modified Eagle Medium: Nutrient Mixture F-12 (DMEM/F12; Gibco) supplemented with 5% horse serum (Invitrogen), 20 ng mL^−1 epidermal growth factor (Merck Millipore), 0.5 μg mL^−1 hydrocortisone (Sigma,-Aldrich, Arklow, Co. Wicklow, Ireland), 100 ng mL^−1 cholera toxin (Sigma, Aldrich, Arklow, Co. Wicklow, Ireland), 10 μg mL^−1 insulin (Sigma, Aldrich, Arklow, Co. Wicklow, Ireland), and penicillin/streptomycin 5000 U mL^−1 (1%)(Gibco, Biosciences, 3 Charlemont Terrace, Crofton Road, Dun Laoghaire, Co Dublin, A96 K7H7, Ireland). […]
Cells were seeded at a density of 2.5 × 10^4 cells/well (MCF-7, MDA-MB-231, MCF-10A cells) and 1 × 10^4 cells/well (HL-60) in 96-well plates (200 μL per well). […] Cell proliferation for MCF-7, MDA-MB-231, and MCF-10A cells was analysed using the alamarBlue assay (Invitrogen Corp.) according to the manufacturer’s instructions. […] Fluorescence was read using a 96-well fluorimeter with excitation at 530 nm and emission at 590 nm. Results were expressed as percentage viability relative to vehicle control (100%).

[2] = system: MCF-7 cells; assay: Annexin V/PI apoptotic assay; type: cell-based, human; conditions: 48 h
Description: (§1) Apoptotic cell death was detected by flow cytometry using Annexin V and propidium iodide (PI). MCF-7 and MDA-MB-231 cells were seeded in 6-well plates at a density of 1 × 10^5 cells/mL (3 mL) and treated with either vehicle (0.1% (v/v) EtOH), Phenstatin (7a), or 21l at different concentrations for the selected time. Then, cells were harvested and prepared for flow cytometric analysis. […] Then, cells were washed once in binding buffer and then re-suspended in PI-containing binding buffer (1:1000). […] Four populations are produced during the assay: Annexin V and PI negative (Q4, healthy cells), Annexin V positive and PI negative (Q3, early apoptosis), Annexin V and PI positive (Q2, late apoptosis), and Annexin V negative and PI positive (Q1, necrosis).

[3] = system: MDA-MB-231 cells; assay: Annexin V/PI apoptotic assay; type: cell-based, human; conditions: 48 h
Description: as §1

[4] = system: purified bovine brain tubulin; assay: tubulin polymerisation assay; type: biochemical; conditions: 10 μM
Description: The assembly of purified bovine tubulin was monitored using a kit, BK006, purchased from Cytoskeleton Inc. (Denver, CO, USA). […] Light is scattered proportionally to the concentration of polymerised microtubules in the assay. Therefore, tubulin assembly was monitored turbidimetrically at 340 nm in a Spectramax 340 PC spectrophotometer (Molecular Devices, Sunnyvale, CA, USA). The absorbance was measured at 30 s intervals for 60 min.

[5] = system: Bcl-2; assay: Western blot in MCF-7 cells; type: cell-based, human; conditions: MCF-7, 1 μM
Description: (§2) MCF-7 cells were seeded at a density of 1 × 10^5 cells/flask (10 mL) in T25 flasks. After 48 h, whole cell lysates were prepared from untreated cells or cells treated with vehicle control (EtOH, 0.1% v/v) or selected compound 21l or 24 (1 μM). MCF-7 cells were harvested in Radioimmunoprecipitation assay buffer (RIPA) buffer supplemented with protease inhibitors (Roche Diagnostics), phosphatase inhibitor cocktail 2 (Sigma-Aldrich), and phosphatase inhibitor cocktail 3 (Sigma-Aldrich). Equal quantities of protein (as determined by a bicinchoninic acid assay (BCA assay) were resolved by SDS-PAGE (12%) followed by transfer to polyvinylidene fluoride PVDF membranes. Membranes were blocked in 5% bovine serum albumin/Tris-buffered saline with 0.1% Tween®20 Detergent (TBST) for 1 h. Membranes were incubated in the relevant primary antibodies at 4 °C overnight, washed with TBST, and incubated in horseradish peroxidase-conjugated secondary antibody for 1 h at rt and washed again. Western blot analysis was performed as described above using antibodies directed against Mcl-1 (1:1000) (Millipore), Bcl-2 [1:500] (Millipore), and PARP followed by incubation with a horseradish peroxidase-conjugated anti-mouse antibody (1:2000) (Promega, Madison, WI, USA). All blots were probed with anti-glyceraldehyde 3-phosphate dehydrogenase (GAPDH) antibody (1:5000) (Millipore) to confirm equal loading. Proteins were detected using enhanced chemiluminescent Western blot detection (Clarity Western ECL substrate) (Bio Rad) on the ChemiDoc MP System (Bio Rad). Experiments were performed on three independent occasions.

[6] = system: Mcl-1; assay: Western blot in MCF-7 cells; type: cell-based, human; conditions: MCF-7, 1 μM
Description: as §2

[7] = system: PARP; assay: Western blot in MCF-7 cells; type: cell-based, human; conditions: MCF-7, 1 μM, vs vehicle
Description: as §2

Compound: COc1ccc(C(c2cc(OC)c(OC)c(OC)c2)n2ccnc2)cc1O (centres unmarked) [21l, 5-((1H-Imidazol-1-yl)(3,4,5-Trimethoxyphenyl)Methyl)-2-Methoxyphenol]
- IC50 [1]: 156 ± 52 nM
- viability at 0.1 µM ([2]; Homo sapiens, MCF7, MCF-7, 0.1 μM, Figure 9A, read-out: Viable): 85.4%
- viability at 0.5 µM ([2]; Homo sapiens, MCF7, MCF-7, 0.5 μM, Figure 9A, read-out: Viable): 81.9%
- viability at 1 µM ([2]; Homo sapiens, MCF7, MCF-7, 1 μM, Figure 9A): 79.4%
- Annexin V-stained positive cells (total apoptotic cells) ([2]; MCF-7, 0.1 μM): 14.1%
- Annexin V-stained positive cells (total apoptotic cells) ([2]; MCF-7, 0.5 μM): 17.5%
- Annexin V-stained positive cells (total apoptotic cells) ([2]; MCF-7, 1 μM): 19.3%
- viability at 0.1 µM ([3]; Homo sapiens, MDA-MB-231, 0.1 μM, Figure 9B, read-out: Viable): 95.3%
- viability at 0.5 µM ([3]; Homo sapiens, MDA-MB-231, 0.5 μM, Figure 9B, read-out: Viable): 93.1%
- viability at 1 µM ([3]; Homo sapiens, MDA-MB-231, 1 μM, Figure 9B): 91.5%
- total apoptotic cells ([3]; MDA-MB-231, 0.1 μM): 3.6%
- total apoptotic cells ([3]; MDA-MB-231, 0.5 μM): 5.9%
- total apoptotic cells ([3]; MDA-MB-231, 1.0 μM): 6.9%
- effect on tubulin polymerisation and assembly [4]: significant inhibition of tubulin polymerisation
- fold reduction of the polymer mass compared to the vehicle [4]: 1.34 fold
- Vmax value of tubulin polymerisation ([4]; 60 min): 2.84 ± 0.10 mOD/min
- expression level of Bcl-2 [5]: no change
- expression level of Mcl-1 [6]: no change
- expression of full-length PARP (116 kDa) [7]: significant reduction

Compound: COc1ccc(C(c2cc(OC)c(OC)c(OC)c2)n2nccn2)cc1O (centres unmarked) [compound 24]
- IC50 [1]: 173 ± 55 nM
- expression level of Bcl-2 [5]: no change
- expression level of Mcl-1 [6]: no change
- expression of full-length PARP (116 kDa) [7]: significant reduction
